# Patent publication US20210085743A1, “SARRACENIA-BASED TOPICAL COMPOSITIONS AND METHODS OF USE THEREOF” (Aubio Life Sciences, LLC, priority 2019, published 2021)
# Experiments:
# [1] = test system: herpes; settings: guinea pig, topical, as infrequently as once weekly; cited from earlier work
# [2] = test system: Reconstructed human epithelium (RhE); assay: Cytokine release (ELISA) in SDS-damaged reconstructed human epithelium; type: cell-based; settings: SDS vs untreated control group
# Method: (§1) Reconstructed human epithelium (RhE) was damaged by exposure to SDS 0.15% for 1 h, then 25 μL of the final Sarracenia formulation (Gel B) was applied. Cell viability by the MTT assay (FIG. 1), and cytokine release, specifically, IL-1α, IL-6, IL-8 and G-CSF release measured using ELISA (FIG. 2), were evaluated 24 h later. Each treatment was run in triplicate. A statistically significant (Tukey's multiple comparison test) recovery in cell viability and cytokine release compared to SDS treated inserts was considered as indicator of repair capacity. FIG. 2 (legend): Evaluation of cytokine production. Each value represents the mean±SD, n=3. Statistical analysis was performed with Tukey's multiple comparison test with *p<0.05 vs Control and § vs SDS treated group.
# [3] = test system: Reconstructed human epithelium (RhE); assay: MTT cell viability in SDS-damaged reconstructed human epithelium; type: cell-based; settings: SDS 0.15% for 1 h, MTT 24 h later
# Method: as §1, with “capacity.” for “capacity. FIG. 2 (legend): Evaluation of cytokine production. Each value represents the mean±SD, n=3. Statistical analysis was performed with Tukey's multiple comparison test with *p<0.05 vs Control and § vs SDS treated group.”
# Each value represents the mean±SD, n=3. **p<0.01 vs control. The dotted line is set at the level of cytotoxicity obtained following SDS damage.
# FIG. 1 (legend): Sarracenia extract formulation improve cellular viability in a skin irritant model. The results obtained on cell viability (MTT assay) are reported. Each value represents the mean±SD, n=3. Statistical analysis was performed with Tukey's multiple comparison test with **p<0.01 vs Control. The dotted line is set at the level of cytotoxicity obtained following SDS damage.
# [4] = test system: cancer cells including melanoma; settings: various types of cancer cells including melanoma; cited from earlier work
# [5] = test system: mycobacteria; settings: from methanolic extracts of Sarracenia purpurea; cited from earlier work
# [6] = test system: THP-1 cells; assay: TLR agonist-induced IL-8 and TNF-α release (ELISA) in THP-1 cells; type: cell-based, human; settings: control wells, 24 h
# Method: Naïve THP-1 cells were exposed for 24 to the TLR3 agonist poly(I:C) (100 μg/ml), to the TLR7/8 agonist imidazoquinoline (1 μg/m1), to the TLR9 agonist Class A CpG oligonucleotide 5 μM, and to LPS from Escherichia coli serotype 0127:B8 10 ng/ml in the presence or absence of three not cytotoxic concentrations of the extract. IL-8 and TNF-α were measured by ELISA as reference cytokines. Three independent experiments will be conducted. A statistically significant difference versus control cells was considered relevant.
# Naïve THP-1 cells were exposed for 24 to poly(I:C) 100 μg/ml, imidazoquinoline (Imid) 1 μg/ml, or LPS 10 ng/ml in the presence or absence of three concentrations of the extract 0.1, 0.5 and 1.0 mg/ml). IL-8 release was measured by ELISA.
# Naïve THP-1 cells were exposed for 24 to poly(I:C) 100 μg/ml, imidazoquinoline (Imid) 1 μg/ml, or LPS 10 ng/ml in the presence or absence of three concentrations of the extract 0.1, 0.5 and 1.0 mg/ml). TNF-α release was measured by ELISA.
compound,measurement,setting,value
"CCOCc1nc2c(N)nc3ccccc3c2n1CC(C)(C)O [Resiquimod, 4-amino-2-ethoxymethyl-α,α-dimethyl-1H-imidazo [4,5-c]quinoline-1-ethanol]",recurrences of herpes after therapy,[1],reduces recurrences of herpes
CCCCCCCCCCCCOS(=O)(=O)[O-].[Na+] [SDS],IL-1α release,[2],increase
same,IL-8 release,[2],increase
same,cell viability after SDS damage,[3],below 50%
C=C(C)[C@@H]1CC[C@]2(CO)CC[C@]3(C)[C@H](CC[C@@H]4[C@@]5(C)CC[C@H](O)C(C)(C)[C@@H]5CC[C@]43C)[C@@H]12 [betulin],anti-tumor activity,[4],anti-tumor activity
C=C(C)[C@@H]1CC[C@]2(C=O)CC[C@]3(C)[C@H](CC[C@@H]4[C@@]5(C)CC[C@H](O)C(C)(C)[C@@H]5CC[C@]43C)[C@@H]12 [betulinaldehyde],antimycobacterial activity,[5],responsible for the antimycobacterial activity
c1cnc2c(c1)ccc1nc[nH]c12 [imidazoquinoline],IL-8 release by TLR agonist alone,[6],induced
C=C(C)[C@@H]1CC[C@]2(C)CC[C@]3(C)[C@H](CC[C@@H]4[C@@]5(C)CC[C@H](O)C(C)(C)[C@@H]5CC[C@]43C)[C@@H]12 [lupeol],anti-tumor activity,[4],anti-tumor activity
C[C@H]1[C@H](C)CC[C@]2(C(=O)O)CC[C@]3(C)C(=CC[C@@H]4[C@@]5(C)CC[C@H](O)C(C)(C)[C@@H]5CC[C@]43C)[C@H]12 [ursolic acid],antimycobacterial activity,[5],responsible for the antimycobacterial activity
Poly(I:C),IL-8 release by TLR agonist alone,[6],induced
